Source: patent publication US20220304947A1, “COMPOSITIONS AND METHODS FOR INHIBITING PROTEOLYTIC ACTIVATION OF VIRUSES” (priority 2021, published 2022)
pIC50: −log10 of the molar value. Read-outs that look alike come from different tables or passages of the source. Residues, ends and D or L forms follow the SMILES beside them. *: point of attachment. Decanoyl = CCCCCCCCCC(=O)*; CH2Cl = ClC*

Experiments:
[1] = molecular target: Recombinant human Furin protein (Homo sapiens, UniProt P09958); assay: Inhibition of proteolytic enzyme (Furin) activity, fluorogenic substrate pGlu-Arg-Thr-Lys-Arg-AMC; format: biochemical; details: for inhibition at 6.25 µg/mL: at 6.25 μg/ml; for inhibition at 100 µg/mL: at 100 μg/ml; for IC50: read-out: IC50, inhibition of Furin (converted)
[2] = system: SARS-CoV-2; assay: Anti-viral assay against SARS-CoV-2 in Vero E6 cells (qRT-PCR viral load); format: cell-based; details: Ribavirin 2 μM, compared to infected cells only
[3] = read-out: Percentage inhibition of Furin

Sequence of Recombinant human Furin protein (P09958 108-794): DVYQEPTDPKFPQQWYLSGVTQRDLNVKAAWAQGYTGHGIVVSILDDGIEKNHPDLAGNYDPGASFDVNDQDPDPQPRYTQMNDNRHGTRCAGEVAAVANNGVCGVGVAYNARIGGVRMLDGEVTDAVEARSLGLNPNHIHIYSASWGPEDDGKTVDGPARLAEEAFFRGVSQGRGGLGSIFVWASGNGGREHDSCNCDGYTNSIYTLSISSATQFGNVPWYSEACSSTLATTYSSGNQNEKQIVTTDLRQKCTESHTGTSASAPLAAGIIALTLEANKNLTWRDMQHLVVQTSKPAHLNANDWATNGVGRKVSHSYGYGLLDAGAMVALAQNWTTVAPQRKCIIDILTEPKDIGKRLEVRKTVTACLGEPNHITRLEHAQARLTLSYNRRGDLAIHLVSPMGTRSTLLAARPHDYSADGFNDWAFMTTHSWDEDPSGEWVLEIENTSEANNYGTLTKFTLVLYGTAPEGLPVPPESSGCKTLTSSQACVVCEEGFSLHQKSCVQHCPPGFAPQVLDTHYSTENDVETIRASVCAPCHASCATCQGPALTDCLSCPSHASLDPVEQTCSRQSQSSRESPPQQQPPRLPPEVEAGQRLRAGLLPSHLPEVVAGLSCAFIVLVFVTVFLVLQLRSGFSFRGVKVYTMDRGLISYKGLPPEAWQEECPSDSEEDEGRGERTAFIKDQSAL

Row | inhibition at 25 µg/mL ([1]; at 25 μg/ml, read-out: Percentage inhibition of Furin) [%] | Compound | inhibition at 6.25 µg/mL [1, 3] [%] | inhibition at 100 µg/mL [1, 3] [%] | IC50 [1] [µM] | pIC50 ([1]; read-out: IC50, inhibition of Furin (positive control)) | reduction of viral load [2] [%]
1 |  | O=C(/C=C/c1ccc(O)cc1)CC(=O)/C=C/c1ccc(O)cc1 [BDMC, Bisdemethoxycurcumin] | 34 | 78 | 48 |  | 
2 | 64.2 | COc1cc(/C=C/C(=O)CC(=O)/C=C/c2ccc(O)c(OC)c2)ccc1O [Curcumin] | 9.64 | 72.6 | 62.6 |  | 
3 |  | CCCCCCCCCC(=O)N[C@@H](CCCNC(=N)N)C(=O)N[C@H](C(=O)N[C@@H](CCCCN)C(=O)N[C@@H](CCCNC(=N)N)C(=O)CCl)C(C)C [Decanoyl RVKR chloromethyl ketone] (Decanoyl-RVKR-CH2Cl) |  |  |  | 7.87 | 
4 |  | NC(=O)c1ncn([C@@H]2O[C@H](CO)[C@@H](O)[C@H]2O)n1 [Ribavirin] |  |  |  |  | 83
